Assay results published in patent US8148403B2, “Substituted piperidyl-propane-thiols” (Boehringer Ingelheim International GmbH, priority 2006, dated 2012).

melting point: 142 °C
SMILES: CCc1c(C2CCN(CCCSc3ccc(F)cc3)CC2)c2ccc(F)cc2n1-c1nc(C)ccc1O [Example 3]
